Data as given in patent US8557804B2, “Nicotinic receptor agonists for the treatment of inflammatory diseases” (priority 2002, dated 2013).
Where “and” joins values, the source holds several entries; their conditions need not be identical. Equal entries are not always repeated. Entries after “also recorded” stand apart in the source; their conditions may differ. Structures can show the parent of a compound that is named as a salt. Where two headings read alike, the source gives them in different places.

What was measured:
[1] = tested on: CD86 expression on alveolar macrophages; assay: CD86 expression in SR-stimulated BAL cells of a normal patient; format: cell-based, human; settings: SR-stimulated alveolar macrophages
Protocol: A broncho-alveolar lavage was performed on a normal patient, and alveolar macrophages were isolated.

[2] = tested on: IL-4 mRNA expression; assay: IL-4 mRNA expression induced by a 24 h LPS stimulation; format: cell-based; settings: LPS stimulation 24 h, 40 μM
Protocol: The effect of agonist treatment on mRNA expression of IL-4, a cytokine that is well known to be involved in the development of asthma, was also tested (53). […] Cells were treated with different doses (40 to 160 μM for both nicotine and DMPP).

[3] = tested on: blood eosinophils; assay: Blood eosinophil transmigration through an artificial basement membrane (Matrigel coated chemotaxis chamber); format: cell-based
Description: Infiltration of eosinophils and other inflammatory cells into lung tissues is an important feature of asthma and the cause of airway inflammation and hyper-responsiveness. The passage of inflammatory cells from the circulation to the lung involves migration through the vascular endothelium, the basement membrane, and extra-cellular matrix components. Inflammatory cells cross the basement membrane by producing proteinases. In these preliminary in vitro experiments, the effects of various nicotinic agonists on the migration of purified blood eosinophils through an artificial basement membrane (Matrigel® coated chemotaxis chamber) were investigated. […] Results are expressed as a percentage of inhibition (agonists-treated cells) compared to the control condition without the agonists.

[4] = tested on: Saccharopolyspora rectivirgula (SR) antigen-induced HP in mice; settings: IP nicotine 0.5 to 2.0 mg/kg twice a day
[5] = tested on: IL-10 mRNA expression in AMJ2-C11 cells; assay: IL-10 mRNA expression by RT-PCR in AMJ2-C11 cells; format: cell-based, mouse
Protocol: (§1) The effect of nicotine or DMPP treatment on AMJ2-C11 cells was tested on TNF-α, IL-10 mRNA expression by RT-PCR. These cytokines are involved in the development of pulmonary inflammatory diseases such as HP, asthma and sarcoidosis (52-55). […] Reference is made to FIG. 3 where results are expressed as a % of expression, 100% being attributed to the LPS alone group. The intensity of the band was obtained by dividing the intensity of the TNF-α band by that of β-actin. […] Reference is made to FIG. 4 where results are expressed as described in FIG. 5.

[6] = tested on: SR-induced inflammation in mice; assay: Short term SR-induced acute lung inflammation in mice, BAL cells; format: in vivo
Description: The Intranasal instillation of Saccharopolyspora rectivirgula (SR) antigens, the causative agent for farmer's lung, to mice, induces a prominent inflammatory response in the lung. Neutrophils are the first inflammatory cells recruited at the site of inflammation.

[7] = tested on: IFN-γ mRNA; settings: pulmonary macrophages and lymphocytes from nicotine treated animals, anti-CD3 + IL-2
[8] = tested on: collagen 1A mRNA expression by normal human lung fibroblasts; assay: Collagen A1 gene expression by RT-PCR in primary normal lung fibroblasts; format: cell-based
Protocol: Asthma is characterized by airway structural changes, including sub-epithelial collagen deposition, that may be a cause for the chronicity of the disease. An imbalance between collagen synthesis and its degradation by fibroblasts may be involved in this process (56). In preliminary experiments, we investigated the effects of nicotinic agonists on collagen A1 synthesis produced by primary normal fibroblasts. Collagen A1 gene expression was evaluated by RT-PCR.
The results are expressed percentage gene expression in agonists treated cells compared to non-treated cells.

[9] = tested on: TNF-α mRNA expression in AMJ2-C11 cells; assay: TNF-α mRNA expression by RT-PCR in AMJ2-C11 cells; format: cell-based, mouse
Protocol: as §1

[10] = tested on: CD80 expression on AMJ2-C11 cells; assay: B7 (CD80) molecule expression on AMJ2-C11 cells; format: cell-based, mouse; settings: LPS (0.1 μg/ml) stimulated, 40 μM for 48 h; LPS alone 38%
Protocol: The effects of nicotine and DMPP on B7 (CD80) molecule expression were tested in vitro. AMJ2-C11 cells (mouse alveolar macrophages, from the ATCC) were incubated with 40 μM nicotine or DMPP and stimulated with LPS (0.1 μg/ml) or SR antigen (50 μg/ml) for 48 hours.

[11] = reference (40); cited from earlier work
[12] = tested on: TNF release by human blood monocytes; assay: cells; format: cell-based
Protocol: Human monocytes were isolated from the blood of asthmatic patients by Ficoll-paque density gradient, let to adhere to tissue culture plates and stimulated with LPS (100 ng/ml) for 18 hours at 37° C. with or without increasing concentrations of nicotine. The release of TNF, a potent pro-inflammatory mediator, was measured in the cell culture supernatant by the ELISA method. Results are expressed as a percentage release from LPS-stimulated untreated cells (FIG. 28).
Tumor necrosis factor (TNF) is a mediator released in inflammatory states.
Human blood monocytes were isolated by Ficoll-paque density gradient, let to adhere to tissue culture plates and stimulated with LPS (100 ng/ml) for 18 hours at 37° C. with or without increasing concentrations of nicotine analogues.

[13] = tested on: lung resistance in hyperresponsive dogs; assay: Dog model of lung hyper-responsiveness to metacholine; format: in vivo; settings: 12 hyperresponsive dogs
Protocol: (§2) In this model 12 dogs naturally sensitized to the roundworm Ascaris suum were used in a cross-over study design. Four groups of 3 dogs were randomly formed, exposed to the allergen, and each animal was left either untreated or received alternatively, ASM-002 (4 mg/kg 2× day in the food), or prednisone (1 mg/kg 1× day in the food), the most commonly used corticosteroid drug used to treat inflammation in asthma.
Hyper-responsiveness is described as the capacity of the lung to react (to increase lung resistance) to a non-specific external stimuli like metacholine or to allergens A hyper-responsive allergen-sensitized dog (asthmatic) will react to lower concentrations of metacholine compared to a non allergic dog. Similarly, improvement in lung hyper-responsiveness is shown by an increase in metacholine concentrations necessary to induce the same level of lung resistance.
Increasing concentrations of metacholine were administered with or without treatment with ASM-002 or Prednisone™ and lung resistance recorded.

[14] = tested on: LTC4 release by blood eosinophils; assay: LTC4 production by PAF-stimulated blood eosinophils (enzyme immunoassay); format: cell-based, human; settings: for LTC4: eosinophils pre-incubated 18 hours with analog, PAF stimulated, untreated 1725.80
Protocol: Blood eosinophils, the most increased inflammatory cells in asthma, were isolated by negative selection using bead-conjugated anti-CD16 monoclonal antibody and magnetic activating cell sorting. Cells were pre-Incubated for 18 hours with the various DMPP analogs and then stimulated with 1 µM platelet-activating factor (PAF) to produce LTC4 which was measured by enzyme immunoassay.
Human blood eosinophils were isolated from blood of asthmatic patients, stimulated in vitro with platelet activating factor (PAF) to produce large amounts of LTC4, and treated or not with 80 μM ASM-002.

[15] = tested on: lung inflammation in dogs sensitized to Ascaris suum; assay: Dog asthma model (Ascaris suum), cellular inflammation in bronchoalveolar lavages; format: in vivo; settings: ASM-002 8 mg/kg (4 mg/kg 2× day in the food); prednisone 1 mg/kg 1× day; n=12
Protocol: as §2
Cellular inflammation was evaluated in the bronchoalveolar lavages.

[16] = tested on: mouse tracheal airway smooth muscle; assay: Isometric study on isolated mouse tracheas pre-contracted with metacholine; settings: cumulative doses, p=0.002
Protocol: Tracheal rings were mounted isometrically to force transducers in organ baths containing Krebs bicarbonate solution at 37° C. and bubbled with 95% O2-5% CO2, pre-contracted with submaximal concentration of metacholine (10^−5) and cumulative doses of the analogs were added to the baths. Changes of tension are recorded. Results are expressed as a percentage of maximal contraction (FIG. 29).
(§3) As described previously, tracheal or bronchial rings were mounted isometrically to force transducers in organ baths containing Krebs bicarbonate solution at 37° C. and bubbled with 95% O2-5% CO2, pre-contracted with submaximal concentration of metacholine cumulative doses of ASM-002 added. Changes of tension are recorded. Results are expressed as a percentage of maximal contraction for mouse (FIG. 34, p=0.002), dog (FIG. 35, p=0.004) and human (FIG. 36)

[17] = tested on: dog bronchial rings; assay: Isometric study on dog bronchial rings pre-contracted with metacholine; settings: cumulative doses, p=0.004
Protocol: as §3

[18] = tested on: lung resistance after metacholine challenge; assay: Airway hyper-reactivity / lung resistance to metacholine in asthmatic mice (FlexiVENT); format: in vivo; settings: ASM-002 4 mg/kg intra-nasal 3 days and 10 minutes prior to challenge; Salbutamol 10 minutes before
Protocol: Airway hyper-reactivity (AHR) in response to metacholine was measured in anesthetized, tracheotomized, ventilated mice using a computer-controlled ventilator (FlexiVENT™).
Increasing doses of metacholine (0 mg/kg-32.5 mg/kg) were administered through the jugular vein.
Lung response to a broncho-constrictive agent, metacholine, was measured by a Flexi-vent® apparatus. Ovalbumin-sensitized animals were treated intra-nasally with ASM-002 (4 mg/kg) during 3 days and 10 minutes prior to the metacholine challenge and compared to untreated OVA-sensitized animals. A negative control group of un-sensitized animals and a positive control group that received Salbutamol (Ventolin) 10 minutes before the metacholine challenge were also included.

[19] = tested on: allergic inflammation of the lungs in ovalbumin-sensitized mice; assay: Ovalbumin-sensitized mouse asthma model, BAL cell counts; format: in vivo, Balb/c mice; settings: Mus musculus, 72 h; intra-nasal 0.5 to 4 mg/kg/d for 3 days, n=8; read-out: ED50, cellular inflammation in the lungs (BAL cells)
Protocol: Groups of Balb/c mice were sensitized by intra-peritoneal injection of 20 μg OVA protein (chicken egg albumin; Sigma-Aldrich) emulsified in 2 mg aluminum hydroxide in PBS. After 4 weeks, challenge doses of 1.5%/50 μl OVA were administered intranasally. The challenge was performed daily for 3 consecutive days and then the mice assessed for allergic inflammation of the lungs 24 h after the last aerosol exposure. Groups of mice were treated with various concentrations of DMPP during the challenge period. Broncho-alveolar lavage (BAL) was performed and the fluid centrifuged at 400 g to separate cells from liquid.
Ovalbumin-sensitized mice (n=8) were challenged with the allergen and simultaneously treated intra-nasally with increasing concentrations of ASM-002 (0.5 to 4 mg/kg/d) for 3 days. The number of cells recovered by broncho-alveolar lavage was used as a measure of lung inflammation.

[20] = tested on: human bronchial rings; assay: Isometric study on human bronchial rings pre-contracted with metacholine; settings: cumulative doses
Protocol: as §3

[21] = purified blood eosinophils, Matrigel

C[N+]1(C)CCCN(c2ccccc2)CC1 (as salt: iodide) [ASM-002, 1,1-dimethyl-4-phenylhomopiperazinium iodide]
melting point: 158 to 160 °C

CN1CCCC1c1cccnc1 (stereo not drawn) [nicotine, Nicotine]
expression of CD86 relative to non-treated cells [1]: about half of the expression | reduction of IL-4 mRNA expression [2]: ≤ 90% | reduction of IL-4 mRNA expression ([2]; listed as Nicotine): up to 92% | inhibition of eosinophil transmigration [3, 21]: reduce blood eosinophil transmigration | lymphocyte population in BAL [4]: decrease in the lymphocyte population | number of total cells in bronchoalveolar lavage (BAL) [4]: significantly reduced | reduction of IL-10 mRNA expression ([5]; LPS stimulated 24 h, 40 μM): 88% and 87% | drop of IL-10 mRNA expression ([5]; SR-stimulated 24 h, 160 μM): 60% | effect on SR-induced inflammation (BAL cells) ([6]; intra-nasal every 6 h, 24 h after SR, DMPP 0.5 mg/kg, nicotine 0.5 mg/kg, epibatidine 2 μg/kg): marked inhibitory effect; also recorded: significant inhibitory effect | expression of IFN-γ mRNA vs cells from non-treated animals [7]: significantly lower expression | collagen A1 gene expression ([8]; 1 and 10 μM): slight inhibitory effect | collagen A1 gene expression ([8]; higher concentrations (above 10 μM)): no effects | reduction of TNF-α mRNA expression ([9]; LPS stimulated 24 h, 40 μM): 98% | effect on TNF-α mRNA expression ([9]; SR-stimulated 24 h, only the 160 μM dose (80 and 160 μM tested)): had an effect on mRNA expression | percentage of expression of CD80 [10]: 20%

O=c1cccc2n1C[C@@H]1CNC[C@H]2C1 [cytisine]
inhibition of eosinophil transmigration [3]: reduce blood eosinophil transmigration

Clc1ccc(C2CC3CCC2N3)cn1 (stereo not drawn) [epibatidine, Epibatidine]
inhibition of eosinophil transmigration [3, 21]: reduce blood eosinophil transmigration | effect on SR-induced inflammation (BAL cells) ([6]; mouse, in vivo): marked inhibitory effect; also recorded: significant inhibitory effect | collagen A1 gene expression ([8]; primary normal fibroblasts, RT-PCR): inhibitory effect is also observed | analgesic potential, times that of morphine [11]: two hundred

CC[N+]1(CC)CCN(c2ccccc2)CC1 [ASM-005]
effect on TNF release ([12]; monocytes of asthmatic patients, LPS 100 ng/ml 18 h, n=8 to 10): Except for ASM-005, all analogs tested had an inhibitory effect

C[C@]12C=CC(=O)C=C1CC[C@@H]1[C@@H]2C(=O)C[C@@]2(C)[C@H]1CC[C@]2(O)C(=O)CO [prednisone]
dogs with decreased lung resistance / improved hyper-responsiveness [13]: None of the 12 dogs

CNC1(C)C2CCC(C2)C1(C)C (stereo not drawn) [mecamylamine]
effect of the antagonist on the DMPP inhibition of eosinophil transmigration ([3]; together with DMPP): reverses the effect of DMPP

CC[N+]1(C)CCN(c2ccccc2)CC1 [ASM-003]
LTC4 [14]: 613.90 pg/mL

C[N+]1(C)CCCN(c2ccccc2)CC1 [ASM-002, 1,1-dimethyl-4-phenylhomopiperazinium iodide]
cellular inflammation in the lungs of asthmatic dogs [15]: inhibits significantly | LTC4 production ([14]; 80 μM, PAF, eosinophils of asthmatic patients, 6 patients, p=0.0007): significant inhibition | LTC4 [14]: 246.40 pg/mL | TNF release ([12]; 40 μM, mean of 5 subjects): inhibits TNF release | EC50 ([12]; Monocyte, LPS-stimulated human blood monocytes, n=6, read-out: EC50, inhibition of TNF release): 3 µM | dogs with decreased lung resistance / improved hyper-responsiveness [13]: 7 out of 12 | relaxing effect on pre-contracted mice tracheas [16]: relaxing effect | relaxing effect on pre-contracted dog bronchi [17]: relaxing effect | lung resistance induced by metacholine compared to untreated OVA-sensitized mice [18]: significant reduction (return to baseline levels) | ED50 [19]: 0.71 mg/kg | relaxing effect on pre-contracted human bronchi [20]: relaxing effect
